From patent US8618100B2, “Compounds with antibacterial activity against Clostridium” (Elanco Animal Health Ireland Limited, priority 2010, dated 2013)
≈ marks a conversion by molar mass, not a printed value.

Columns and labels:
[1] = test system: Clostridium perfringens (strain 56); test: microbe, parasite or virus in culture; format: cell-based; details: 24 h, read-out: IC90 against C. perfringens
[2] = test system: Clostridium difficile (ATCC9689); test: In-vitro anti-bacterial activity against C. difficile (D.1.2); format: cell-based; details: Clostridioides difficile, Reinforced Clostridial broth, 37° C., 48 hours, anaerobic, OD 570 nm
[3] = test system: Moraxella catarrhalis; test: In-vitro test against several bacteria (D.1.3): M. catarrhalis; format: cell-based; details: Gram negative, Brain heart Infusion medium, 20-24 hours aerobic, read-out: IC90 against M. cattarhalis
Description: (§1) The plates were incubated at 37° C.

[4] = test system: Acinetobacter baumanii; test: In-vitro test against several bacteria (D.1.3): A. baumanii; format: cell-based; details: Acinetobacter baumannii; Gram negative; Nutrient broth; 20-24 hours aerobic
Description: as §1

[5] = test system: Enterococcus faecalis; test: In-vitro test against several bacteria (D.1.3): E. faecalis; format: cell-based; details: Gram positive, Todd Hewitt medium, 20-24 hours in 5% CO2; for IC90: Enterococcus faecalis
Description: (§2) The plates were incubated at 37° C. […] Enterococcus faecalis, Streptococcus pneumonia: Todd Hewitt medium; incubation for 20-24 hours in 5% CO2.

[6] = test system: Streptococcus pneumonia; test: In-vitro test against several bacteria (D.1.3): S. pneumonia; format: cell-based; details: Gram positive, Todd Hewitt medium, 20-24 hours in 5% CO2; for IC90: Streptococcus pneumoniae
Description: as §2

[7] = test system: Mycobacterium smegmatis; test: In-vitro test against several bacteria (D.1.3): M. smegmatis; format: cell-based; details: Mycolicibacterium smegmatis; Mueller Hinton medium; 48 hours aerobic
Description: The plates were incubated at 37° C. […] Mycobacterium smegmatis: Mueller Hinton medium; incubation for 48 hours in aerobic conditions.

[8] = test system: Escherichia coli; test: In-vitro test against several bacteria (D.1.3): E. coli; details: read-out: IC90 against E. coli
[9] = test system: Staphylococcus aureus; test: In-vitro test against several bacteria (D.1.3): S. aureus; details: for IC90: Staphylococcus aureus, read-out: IC90 against S. aureus
[10] = test system: Bacillus subtilis; test: In-vitro test against several bacteria (D.1.3): B. subtilis; details: read-out: IC90 against B. subtilis
[11] = test system: Klebsiella pneumoniae; test: In-vitro test against several bacteria (D.1.3): K. pneumoniae; details: read-out: IC90 against K. pneumoniae
[12] = test system: Pseudomonas aeruginosa; test: In-vitro test against several bacteria (D.1.3): P. aeruginosa; details: read-out: IC90 against P. aeruginosa
[13] = test system: Staphylococcus epidermidis; test: In-vitro test against several bacteria (D.1.3): S. epidermidis; details: for IC90: Staphylococcus epidermidis, read-out: IC90 against S. epidermidis
[14] = test system: Listeria monocytogenes; test: In-vitro test against several bacteria (D.1.3): L. monocytogenes; details: read-out: IC90 against L. monocytogenes
[15] = test system: Methicillin-Resistant Staphylococcus aureus; test: In-vitro test against several bacteria (D.1.3): Methicillin-Resistant S. aureus; details: for IC90: Staphylococcus aureus, read-out: IC90 against Methicillin-Resistant S. aureus
[16] = Gram positive, Mueller Hinton medium, 20-24 hours aerobic

| Compound | IC90 [1] [µg/mL] | IC90 [2] [µg/mL] | IC90 [3] [µg/mL] | IC90 [4] [µg/mL] | IC90 [5] [µg/mL] | IC90 [6] [µg/mL] | IC90 [7] [µg/mL] | IC90 [8] [µg/mL] | IC90 [9] [µg/mL] | IC90 [10] [µg/mL] | IC90 [11] [µg/mL] | IC90 [12] [µg/mL] | IC90 [13] [µg/mL] | IC90 [14] [µg/mL] | IC90 [15] [µg/mL] | melting point [°C] | further results |
| --- | --- | --- | --- | --- | --- | --- | --- | --- | --- | --- | --- | --- | --- | --- | --- | --- | --- |
| O=c1cc(NCCCN[C@@H]2CCOc3c(Br)cc(Br)cc32)[nH]c2ccsc12 [REP3123, 5-[3-((R)(+)-6,8-dibromo-chroman-4-ylamino)-propylamino]-4H-thieno[3,2-b]pyridine-7-one] | 0.25 (≈ 0.487 µM) | 0.5 to 1 (≈ 0.974 to 1.95 µM) | 16 (≈ 31.2 µM) | > 64 | < 0.25 | 1 (≈ 1.95 µM) | 6 to 8 (≈ 11.7 to 15.6 µM) | > 32 | < 0.25 | 0.12 (≈ 0.234 µM) | > 64 | > 78 | < 0.25 | 0.12 (≈ 0.234 µM) | < 0.25 | – | IC90 against E. faecalis [5]: <0.25 µg/mL; IC90 against S. aureus [9, 16]: <0.25 µg/mL; IC90 against S. epidermidis [13, 16]: <0.25 µg/mL; IC90 against Methicillin-Resistant S. aureus [15, 16]: <0.25 µg/mL |
| CNc1nc(NCCCN[C@@H]2CCOc3c(Br)cc(Br)cc32)nc2c(Cl)cnn12 [(3)] | – | – | – | – | – | – | – | – | – | – | – | – | – | – | – | 108.8 to 118.6 | – |
| Nc1nc(NCCCN[C@@H]2CCOc3c(Br)cc(Br)cc32)nc2c(Cl)cnn12 [(4)] | – | – | – | – | – | – | – | – | – | – | – | – | – | – | – | 78.7 to 94.1 | – |
| Cl.Oc1nc(NCCCN[C@@H]2CCOc3c(Br)cc(Br)cc32)nc2ccnn12 [Compound (2)] | 0.5 | 2 | 16 | > 64 | 1.5 | > 31 | > 31 | > 31 | 8 to 15 | 4 | > 64 | > 75 | 15 | 2 | 7 to 13 | 234.6 to 235.6 | IC90 against S. pneumonia [6]: >31 µg/mL |
